Experimental data reported in paper PMC5587309, “Involvement of arginine 878 together with Ca^2+ in mouse aminopeptidase A substrate specificity for N-terminal acidic amino-acid residues” (PLoS ONE, 2017).
Changes are numbered by the printed parent chain. Read-outs that look alike come from different tables or passages of the source.

Experiments:
Format in all cases: biochemical
[1] = target: T1, wild-type mAPA (Mus musculus, UniProt P16406); assay: Inhibition of GluNA hydrolysis by purified recombinant wild-type His-mAPA; conditions: wild-type mAPA; for Ki: 0.5 mM GluNA, read-out: Ki
T1 construct: made in house; host or cells: stably transfected CHO-K1 cells
T1 sequence (P16406 1-945): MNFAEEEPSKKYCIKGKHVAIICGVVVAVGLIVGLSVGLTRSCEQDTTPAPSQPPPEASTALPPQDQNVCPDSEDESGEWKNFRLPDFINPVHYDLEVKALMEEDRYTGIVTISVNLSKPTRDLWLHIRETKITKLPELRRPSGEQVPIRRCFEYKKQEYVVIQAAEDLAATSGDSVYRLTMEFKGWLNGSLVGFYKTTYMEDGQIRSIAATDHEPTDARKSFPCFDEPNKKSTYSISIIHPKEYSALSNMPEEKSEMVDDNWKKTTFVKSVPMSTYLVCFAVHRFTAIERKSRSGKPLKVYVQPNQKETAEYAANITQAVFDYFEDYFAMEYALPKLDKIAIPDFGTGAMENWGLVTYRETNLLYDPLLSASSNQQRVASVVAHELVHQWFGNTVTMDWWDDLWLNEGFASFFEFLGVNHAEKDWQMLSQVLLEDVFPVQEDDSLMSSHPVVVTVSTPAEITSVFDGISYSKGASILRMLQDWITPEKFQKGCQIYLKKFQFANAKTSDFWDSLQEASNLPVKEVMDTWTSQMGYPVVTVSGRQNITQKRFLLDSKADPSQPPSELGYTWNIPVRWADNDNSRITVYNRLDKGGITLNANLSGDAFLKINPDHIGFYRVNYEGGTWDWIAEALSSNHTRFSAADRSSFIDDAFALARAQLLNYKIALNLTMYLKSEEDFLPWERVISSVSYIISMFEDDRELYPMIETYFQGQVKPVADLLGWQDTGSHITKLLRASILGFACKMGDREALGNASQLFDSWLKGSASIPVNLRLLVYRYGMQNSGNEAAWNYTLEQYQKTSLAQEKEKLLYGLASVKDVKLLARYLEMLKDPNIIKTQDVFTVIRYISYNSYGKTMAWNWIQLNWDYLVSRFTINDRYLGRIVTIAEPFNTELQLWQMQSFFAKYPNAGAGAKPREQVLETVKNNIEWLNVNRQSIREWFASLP
Description: (§1) Enzyme assays were carried out for wild-type and mutated His-mAPAs in 50 mM Tris-HCl buffer, pH 7.4, with or without 4 mM CaCl2, by monitoring the rate of hydrolysis of GluNA, as previously described. The sensitivity to Ca^2+ of purified wild-type and mutated His-mAPA was determinated by incubating 0.5 mM GluNA with 0 to 4 mM CaCl2 in a final volume of 100 μl of 50 mM Tris-HCl buffer, pH 7.4. All the assays were performed in black 96-well plates (solid black 96-well flat-bottomed non-treated plates with no lid; Corning Costar). All of the enzymatic studies were performed such that substrate hydrolysis rates were maintained below 10% (initial rate conditions). The kinetic curves were monitored by following the increase in fluorescence at 460 nm (lex = 330 nm), induced by the release of the β-naphthylamide fluorogenic part of the substrate by APA. Fluorescence signals were monitored by counting photons with a spectrophotometer (Fusion universal microplate analyser; Packard) equipped with a temperature control device and a plate shaker. The kinetic parameters (Km and kcat) were determined from Michaelis-Menten plots, using GraphPad Prism 4 software (GraphPad) with a final concentration of substrate (GluNA) from 0.005 to 5 mM with or without 4 mM Ca^2+. For evaluation of the substrate specificity of APA with or without 4 mM Ca^2+, the rate of hydrolysis of […] additional substrates, α-L-aspartate-β-naphthylamide (AspNA), α-L-alanine-β-naphthylamide (AlaNA) and basic α-L-lysine-β-naphthylamide (LysNA), was determined under the same experimental conditions as described for GluNA. The sensitivity of wild-type and mutated His-mAPAs to inhibition by [(3S)-3-amino-4-sulfanyl-butane-1-sulfonic acid] (EC33), glutamate-thiol (GluSH), glutamate-phosphonic-acid (GluPO3H2), methionine-thiol (MetSH) and lysine-thiol (LysSH) was determined by establishing dose-dependent inhibition curves for a final GluNA concentration of 0.5 mM in the presence or absence of 4 mM CaCl2. These compounds being linear competitive inhibitors, their Ki were calculated from the formula Ki = IC50/ (1+ [GluNA]/Km).

[2] = target: T1, wild-type mAPA; assay: Kinetic parameters of substrate hydrolysis by wild-type His-mAPA; conditions: for Km / kcat: wild type mAPA
Description: as §1

[3] = target: T2, R878A mutated mAPA (Mus musculus, UniProt P16406, R878A); assay: Kinetic parameters of substrate hydrolysis by R878A His-mAPA
T2 construct: made in house; host or cells: stably transfected CHO-K1 cells
T2 sequence (P16406 1-945 R878A): T1 sequence (P16406 1-945) with R878A
Description: as §1

Row | Ki ([1]; 4 mM Ca2+) [nM] | enhancement of inhibitory potency by 4 mM Ca2+ compared to Ki in the absence of Ca2+ [1] [fold] | Ki ([1]; absence of calcium) [nM] | Km ([2]; 4 mM Ca2+) [µM] | kcat ([2]; 4 mM Ca2+) [s⁻¹] | Km ([2]; no Ca2+) [µM] | kcat ([2]; no Ca2+) [s⁻¹] | Km ([3]; 4 mM Ca2+) [µM] | kcat ([3]; 4 mM Ca2+) [s⁻¹] | Km ([3]; no Ca2+) [µM] | kcat ([3]; no Ca2+) [s⁻¹] | increase of cleavage efficiency (kcat/Km) by addition of Ca2+ ([2]; wild-type APA, 4 mM Ca2+ vs no Ca2+) [fold] | decrease in hydrolysis velocity (kcat) compared to wild-type (factor) ([3]; presence of Ca2+) | decrease in the affinity of the enzyme for the substrate compared to wild-type (factor) ([3]; presence of Ca2+) | SMILES
1 | 314 ± 33 | 5.0 | 1570 ± 270 | – | – | – | – | – | – | – | – | – | – | – | N[C@H](CS)CCC(=O)O [GluSH, (4S)-4-amino-5-sulfanylpentanoic acid]
2 | – | – | – | 321 ± 41 | 17.4 ± 0.6 | 394 ± 20 | 21.6 ± 0.5 | 544 ± 74 | 41.5 ± 1.6 | 651 ± 43.8 | 12.6 ± 0.04 | – | – | – | C[C@H](N)C(=O)Nc1ccc2ccccc2c1 [HAlaβNA, α-L-alanine-β-naphthylamide]
3 | – | – | – | 54 ± 1.4 | 68.1 ± 1.3 | 149 ± 15.6 | 10.4 ± 0.6 | 199 ± 10.1 | 17.9 ± 0.2 | 1220 ± 24.9 | 1.89 ± 0.2 | – | – | – | N[C@@H](CC(=O)O)C(=O)Nc1ccc2ccccc2c1 [HAspβNA, α-L-aspartate-β-naphthylamide]
4 | – | – | – | 39.1 ± 3.9 | 81.7 ± 4.0 | 165 ± 13.5 | 13.9 ± 0.1 | 221 ± 4 | 22.4 ± 0.1 | 1500 ± 79.6 | 4.95 ± 0.1 | 25 | 4 | 6 | N[C@@H](CCC(=O)O)C(=O)Nc1ccc2ccccc2c1 [HGluβNA, α-L-glutamyl-β-naphthylamide]
5 | 13400 ± 1700 | – | 317 ± 30 | – | – | – | – | – | – | – | – | – | – | – | NCCCC[C@H](N)CS [LysSH, (2S)-2,6-diaminohexane-1-thiol]
6 | 9180 ± 770 | – | 750 ± 46 | – | – | – | – | – | – | – | – | – | – | – | CSCC[C@H](N)CS [MetSH]

Row | SMILES | Ki ([1]; 4 mM Ca2+) [nM] | enhancement of inhibitory potency by 4 mM Ca2+ compared to Ki in the absence of Ca2+ [1] [fold] | Ki ([1]; absence of calcium) [nM] | Km ([2]; 4 mM Ca2+) [µM] | kcat ([2]; 4 mM Ca2+) [s⁻¹] | Km ([2]; no Ca2+) [µM] | kcat ([2]; no Ca2+) [s⁻¹] | Km ([3]; 4 mM Ca2+) [µM] | kcat ([3]; 4 mM Ca2+) [s⁻¹] | Km ([3]; no Ca2+) [µM] | kcat ([3]; no Ca2+) [s⁻¹] | increase of cleavage efficiency (kcat/Km) by addition of Ca2+ ([2]; wild-type APA, 4 mM Ca2+ vs no Ca2+) [fold] | decrease in hydrolysis velocity (kcat) compared to wild-type (factor) ([3]; presence of Ca2+) | decrease in the affinity of the enzyme for the substrate compared to wild-type (factor) ([3]; presence of Ca2+)
7 | N[C@H](CS)CCS(=O)(=O)O [EC33, (3S)‐3‐amino‐4‐sulfanylbutane‐1‐sulfonic acid] | 268 ± 22 | – | – | – | – | – | – | – | – | – | – | – | – | –
8 | NCCCC[C@H](N)C(=O)Nc1ccc2ccccc2c1 [HLysβNA, α-L-lysine-β-naphthylamide] | – | – | – | 244 ± 29.5 | 25.8 ± 0.2 | 304 ± 49.7 | 16.4 ± 0.7 | 159 ± 7.8 | 11.6 ± 0.2 | 394 ± 57 | 13.8 ± 0.7 | – | – | –
